Experimental data as given in patent US12076307B2, “Compositions for prevention or treatment of acute radiation syndrome and other radiation exposure” (priority 2017, dated 2024).

Tests used:
SD rat = assay: Immunotoxicity study (splenic blastogenesis response test); assay type: in vivo; details: Oral; 4 weeks
Source text: (§1) Various toxicology studies have been performed. All studies were GLP-compliant unless otherwise noted.

Sprague-Dawley rats = assay: Central nervous system of rats (FOB); assay type: in vivo, rat; details: doses up to 2000 mg/kg; to 24 hrs
Method: Sprague-Dawley rats (n=8 males/group) received control material (olive oil) or EC-18 at 500, 1000, and 2000 mg/kg. The functional observational battery test, which included observations inside the cage, in open space, and while holding in the hands, along with sensory-motor function, and body temperature measurements were performed before EC-18 administration and 0.5, 1, 3, 6, and 24 hrs after control or EC-18 administration.

Guinea pig = assay: Antigenicity test; assay type: in vivo; details: Oral; 2 weeks; 500, 2000 mg/kg; 2000 mg/kg + FCA
Source text: as §1

ICR mouse = assay: Micronucleus assay; assay type: in vivo; details: Oral; Single; 0, 500, 1000, 2000 mg/kg
Source text: as §1

[1] = Plasma radioactivity in rats after single oral or IV [14C]EC-18; assay type: in vivo, rat; details: oral, fed condition
Method: Male SD rats in the fed state were administered a single oral dose of 25, 50, or 100 mg/kg (vehicle: olive oil) or a single IV injection of 10 mg/kg of [^14C]EC-18 (EC-18 with radioactive isotope ^14C attached). Subsequently, the PK parameters were assessed. The concentration of radioactivity in rat plasma was measured by liquid scintillation counting (LSC) method after adding a scintillator (Clear-Sol I, Nacalai Tesque, Inc).

[2] = test system: Balb/c mice, gamma-ray 6.11 Gy; assay: DAMP (HMGB1, S100A9) in blood of irradiated mice; assay type: in vivo, mouse; details: 50 and 250 mg/kg oral 3 days from day 1
Method: To confirm the proposed mechanism of EC-18 in the in vivo model, female Balb/c mice were irradiated with a gamma-ray of 6.11 Gy on day 0. Then, EC-18 (50 and 250 mg/kg) or PBS was orally administered for 3 consecutive days from day 1 and the mice were sacrificed on the third day. […] While, from the EC-18-treated group, the amount of DAMP reduced compared to the control group, supporting the proposed mechanism of EC-18. Establishment of a Balb/C Mouse Model for ARS

hERG channel = hERG channel (Homo sapiens, UniProt Q12809); assay: In vitro hERG channel inhibition; details: for hERG channel current suppression rate (compensated suppression rate): HEK-293 cells
Beagle dog = assay: Cardiovascular function in conscious dogs; assay type: in vivo; details: doses up to 2000 mg/kg
Method: CA was administered to one unanesthetized and unrestrained telemetered male Beagle dog and EC-18 (500, 1000, or 2000 mg/kg) was administered to each of three unanesthetized and unrestrained telemetered male Beagle dogs (1:1:1:1) weekly for 4 weeks. Cardiovascular effects were evaluated based on the behavioral observations, BP, HR, and ECG, from 1-hr pre-dose to 24-hr post-dose.

[3] = test system: HaCaT (human keratinocyte) cells; assay: Radiation-induced DAMP (HMGB1) release from HaCaT cells; assay type: cell-based; details: γ-irradiated HaCaT cells
Method: The radiation-induced DAMP removal was evaluated in HaCaT (human keratinocyte) cells exposed with γ-radiation from a ^60Co radiation source (0.833 Gy/minute). As one type of DAMPs, high-mobility group box 1 (HMGB1) was used as a biomarker to establish the mitigating effect of EC-18 against radiation. HMGB1 proportionally secreted as the radiation dosage (5 to 10 Gy) and exposure time (24 to 48 hrs) increased (FIG. 33A).

CYP3A4 = CYP3A4 (Homo sapiens, UniProt P08684); assay: CYP enzyme inhibition in human liver microsomes, CYP3A4
Source text: (§2) CYP1A2, CYP2C9, CYP2C19, CYP2D6, and CYP3A4 are the CYP subfamily, which plays a critical role in the metabolism of most drugs.

[4] = test system: Chinese hamster lung cells (CHL/IU); assay: Chromosomal aberration test; assay type: cell-based; details: 6 and 24 hrs; with or without metabolic activation
Source text: as §1

CYP2C19 = CYP2C19 (Homo sapiens, UniProt P33261); assay: CYP enzyme inhibition in human liver microsomes, CYP2C19
Source text: as §2

[5] = Pathway of excretion in rats after single oral [14C]EC-18; assay type: in vivo, rat; details: 50 mg/kg oral, 50 mg/kg
Method: To assess the routes of EC-18 excretion, male rats were administered a single dose of [^14C]EC-18 (oral dose of 50 mg/kg), after which, radioactive concentrations were measured in urine, feces, and exhaled air in the chamber of the animals for 168 hrs, and in the body after the autopsy.

OAT3 = target: T1, OAT3 (Homo sapiens, UniProt Q8TCC7); assay: Drug transporter inhibition, OAT3; assay type: in vitro ADME; details: 100 nM [3H] estrone-3-sulfate; transfected HEK-293 cells
T1 construct: expressed in transfected cells; host or cells: HEK-293
Method: (§3) This study examined the potential of EC-18 to interact with the transporter proteins that have been known to be involved in the absorption of commercially available drugs. EC-18 was pre-incubated with HEK-293 cells and LLC-PK1 cells that were transfected with the genes of most drug transporters as follows: OATP1B1, OATP1B3, OAT1, OAT3 and OCT2, and BCRP and P-gp, respectively.

OCT2 = target: T2, OCT2 (Homo sapiens, UniProt O15244); assay: Drug transporter inhibition, OCT2; assay type: in vitro ADME; details: 100 nM [3H] methyl-4-phenylpyridinium; transfected HEK-293 cells
T2 construct: expressed in transfected cells; host or cells: HEK-293
Method: as §3

[6] = test system: Balb/c mice, γ-Radiation TBI; assay: Survival after total body irradiation 6.5-10 Gy (Example 4); assay type: in vivo, mouse; details: 250 mg/kg/day PO
Source text: In order to evaluate effects of PLAG on survival rates of animal models exposed to radiation, the following test groups were constructed as shown in Table 3 and results are shown in FIG. 7B, and FIG. 8-12. As discussed in Examples above, the first group of untreated group (negative control) of ARS-induced mice after radiation was compared to the second group of treated group of ARS-induced mice with PLAG after radiation.

Chain of hERG channel (Q12809 whole entry): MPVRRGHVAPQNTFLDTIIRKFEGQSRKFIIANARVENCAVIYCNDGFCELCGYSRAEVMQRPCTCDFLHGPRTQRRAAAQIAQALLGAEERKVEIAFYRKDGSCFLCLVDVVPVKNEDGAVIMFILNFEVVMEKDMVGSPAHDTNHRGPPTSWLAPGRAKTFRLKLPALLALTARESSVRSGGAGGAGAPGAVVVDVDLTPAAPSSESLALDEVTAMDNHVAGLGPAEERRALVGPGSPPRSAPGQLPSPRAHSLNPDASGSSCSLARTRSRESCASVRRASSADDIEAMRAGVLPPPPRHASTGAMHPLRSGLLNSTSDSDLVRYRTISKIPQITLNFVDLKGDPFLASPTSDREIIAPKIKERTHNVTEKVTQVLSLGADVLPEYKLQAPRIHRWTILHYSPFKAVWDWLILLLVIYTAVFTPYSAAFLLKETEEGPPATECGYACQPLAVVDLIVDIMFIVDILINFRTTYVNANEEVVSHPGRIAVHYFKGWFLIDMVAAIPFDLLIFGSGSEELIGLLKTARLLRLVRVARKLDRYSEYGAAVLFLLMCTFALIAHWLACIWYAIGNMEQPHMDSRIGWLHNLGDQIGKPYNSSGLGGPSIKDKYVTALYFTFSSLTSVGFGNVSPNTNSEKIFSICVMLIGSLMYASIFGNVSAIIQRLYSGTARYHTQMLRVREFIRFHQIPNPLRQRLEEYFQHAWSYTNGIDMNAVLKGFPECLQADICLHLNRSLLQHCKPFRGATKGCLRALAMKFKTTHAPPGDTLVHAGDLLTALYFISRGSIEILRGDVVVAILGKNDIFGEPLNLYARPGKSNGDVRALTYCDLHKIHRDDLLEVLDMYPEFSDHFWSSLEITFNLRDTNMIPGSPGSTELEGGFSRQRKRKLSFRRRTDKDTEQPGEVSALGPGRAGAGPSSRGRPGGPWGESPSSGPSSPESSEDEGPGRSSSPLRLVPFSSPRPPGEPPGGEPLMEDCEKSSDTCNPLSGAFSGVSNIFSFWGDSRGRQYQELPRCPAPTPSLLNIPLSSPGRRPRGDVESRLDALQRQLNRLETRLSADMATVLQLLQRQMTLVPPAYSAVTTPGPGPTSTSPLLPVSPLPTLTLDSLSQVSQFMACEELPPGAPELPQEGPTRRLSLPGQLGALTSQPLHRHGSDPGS
T1 sequence (Q8TCC7 whole entry, species assumed): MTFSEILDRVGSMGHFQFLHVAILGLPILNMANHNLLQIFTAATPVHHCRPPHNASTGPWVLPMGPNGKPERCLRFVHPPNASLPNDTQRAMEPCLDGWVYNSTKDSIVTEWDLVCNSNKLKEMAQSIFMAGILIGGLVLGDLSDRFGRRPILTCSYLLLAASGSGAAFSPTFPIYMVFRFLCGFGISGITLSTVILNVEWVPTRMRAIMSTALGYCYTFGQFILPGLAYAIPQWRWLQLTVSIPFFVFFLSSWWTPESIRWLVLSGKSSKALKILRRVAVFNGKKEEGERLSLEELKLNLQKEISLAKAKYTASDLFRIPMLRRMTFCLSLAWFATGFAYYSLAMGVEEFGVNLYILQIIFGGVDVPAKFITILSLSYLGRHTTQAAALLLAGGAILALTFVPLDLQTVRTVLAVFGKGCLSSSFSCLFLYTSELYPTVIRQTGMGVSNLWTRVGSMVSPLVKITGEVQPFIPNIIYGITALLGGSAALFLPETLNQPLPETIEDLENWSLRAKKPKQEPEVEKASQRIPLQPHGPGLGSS
Chain of CYP3A4 (P08684 whole entry): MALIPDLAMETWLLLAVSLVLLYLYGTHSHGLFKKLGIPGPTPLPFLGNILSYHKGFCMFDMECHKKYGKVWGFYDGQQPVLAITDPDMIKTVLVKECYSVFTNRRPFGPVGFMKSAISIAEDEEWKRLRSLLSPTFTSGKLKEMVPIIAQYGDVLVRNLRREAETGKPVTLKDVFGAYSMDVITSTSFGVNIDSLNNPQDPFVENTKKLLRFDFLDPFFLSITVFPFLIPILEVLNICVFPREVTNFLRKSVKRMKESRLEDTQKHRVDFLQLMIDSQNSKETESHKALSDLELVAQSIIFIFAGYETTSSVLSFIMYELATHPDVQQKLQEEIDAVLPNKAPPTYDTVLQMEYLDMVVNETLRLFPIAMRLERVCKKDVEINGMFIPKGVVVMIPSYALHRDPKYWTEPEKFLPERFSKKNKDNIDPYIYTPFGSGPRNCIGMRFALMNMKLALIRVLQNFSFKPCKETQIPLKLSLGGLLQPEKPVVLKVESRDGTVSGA
Chain of CYP2C19 (P33261 whole entry): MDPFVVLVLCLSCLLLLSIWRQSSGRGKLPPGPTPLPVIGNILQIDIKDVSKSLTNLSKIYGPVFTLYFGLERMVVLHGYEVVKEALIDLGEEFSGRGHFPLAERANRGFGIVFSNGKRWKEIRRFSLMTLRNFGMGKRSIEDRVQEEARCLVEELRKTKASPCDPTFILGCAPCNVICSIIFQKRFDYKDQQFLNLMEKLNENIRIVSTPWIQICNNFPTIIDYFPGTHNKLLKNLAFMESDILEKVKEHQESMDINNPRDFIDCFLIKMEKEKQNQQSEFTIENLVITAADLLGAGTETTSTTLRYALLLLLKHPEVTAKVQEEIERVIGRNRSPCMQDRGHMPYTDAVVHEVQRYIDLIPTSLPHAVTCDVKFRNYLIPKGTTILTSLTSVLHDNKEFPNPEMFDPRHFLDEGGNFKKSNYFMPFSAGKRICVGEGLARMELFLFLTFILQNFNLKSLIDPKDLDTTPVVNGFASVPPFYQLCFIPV
T2 sequence (O15244 whole entry): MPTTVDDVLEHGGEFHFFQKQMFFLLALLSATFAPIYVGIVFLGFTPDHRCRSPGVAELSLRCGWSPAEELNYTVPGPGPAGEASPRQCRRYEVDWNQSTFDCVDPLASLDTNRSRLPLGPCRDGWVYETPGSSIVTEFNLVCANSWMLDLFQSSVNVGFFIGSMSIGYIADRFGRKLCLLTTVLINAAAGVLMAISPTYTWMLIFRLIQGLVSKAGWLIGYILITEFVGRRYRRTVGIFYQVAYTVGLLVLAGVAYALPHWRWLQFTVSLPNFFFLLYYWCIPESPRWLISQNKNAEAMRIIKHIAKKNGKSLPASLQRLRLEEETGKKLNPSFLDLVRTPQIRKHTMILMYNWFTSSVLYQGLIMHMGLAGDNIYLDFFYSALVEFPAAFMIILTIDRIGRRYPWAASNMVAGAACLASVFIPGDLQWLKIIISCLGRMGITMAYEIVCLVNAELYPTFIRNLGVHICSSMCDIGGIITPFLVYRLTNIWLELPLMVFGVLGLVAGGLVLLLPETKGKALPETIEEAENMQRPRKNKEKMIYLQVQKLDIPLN

Structure (SMILES): CCCCC/C=C\C/C=C\CCCCCCCC(=O)OC(COC(C)=O)COC(=O)CCCCCCCCCCCCCCC (stereo not drawn) [EC-18, 1-palmitoyl-2-linoleoyl-3-acetylglycerol]
- T and B lymphocyte proliferation (SD rat): No changes in T and B
- CNS (functional observational battery) (Sprague-Dawley rats): did not affect the CNS
- anaphylaxis reaction / antigenicity (Guinea pig): No anaphylaxis reaction
- micronucleus induction in mouse bone marrow cells (ICR mouse): EC-18 does not affect
- absolute bioavailability (BA) [1]: approximately 46%
- amount of DAMP (HMGB1, S100A9) in blood vs control group [2]: reduced
- hERG channel current suppression rate (compensated suppression rate) (hERG channel; 125 μM): 1.39%
- hERG channel current suppression rate (compensated suppression rate) (hERG channel; 250 μM): 2.97%
- hERG channel current suppression rate (compensated suppression rate) (hERG channel; 500 μM): 2.54%
- hERG channel current suppression rate (compensated suppression rate) (hERG channel; 1000 μM): 2.90%
- hERG channel current inhibition (hERG channel; concentrations up to 1000 μM): did not inhibit the hERG channel current
- cardiovascular effects (behavior, BP, HR, ECG) (Beagle dog): no cardiovascular effects
- HMGB1 release [3]: less HMGB1 released in a dose-dependent manner
- IC50 (CYP3A4): 26.8 µM
- inducible effects on chromosomal aberration [4]: EC-18 didn't have
- IC50 (CYP2C19): 83.6 µM
- Cumulative Radioactive Concentration Relative to the Administered Dose, Exhaled Air ([5]; 0-24 hr): approximately 71%
- Cumulative Radioactive Concentration Relative to the Administered Dose, Feces ([5]; 0-24 hr): ~3%
- Cumulative Radioactive Concentration Relative to the Administered Dose, Total ([5]; 0-24 hr): approximately 76%
- Cumulative Radioactive Concentration Relative to the Administered Dose, Urine ([5]; 0-24 hr): ~2%
- Cumulative Radioactive Concentration Relative to the Administered Dose, Exhaled Air ([5]; 0-72 hr): ~77%
- Cumulative Radioactive Concentration Relative to the Administered Dose, Feces ([5]; 0-72 hr): ~4%
- Cumulative Radioactive Concentration Relative to the Administered Dose, Total ([5]; 0-72 hr): approximately 83%
- Cumulative Radioactive Concentration Relative to the Administered Dose, Urine ([5]; 0-72 hr): ~2%
- Cumulative Radioactive Concentration Relative to the Administered Dose, Cadaver ([5]; 0-168 hr): approximately 10%
- Cumulative Radioactive Concentration Relative to the Administered Dose, Exhaled Air ([5]; 0-168 hr): ~79%
- Cumulative Radioactive Concentration Relative to the Administered Dose, Feces ([5]; 0-168 hr): ~4%
- Cumulative Radioactive Concentration Relative to the Administered Dose, Total ([5]; 0-168 hr): ~96%
- Cumulative Radioactive Concentration Relative to the Administered Dose, Urine ([5]; 0-168 hr): ~2%
- IC50 (OAT3): > 32 µM
- IC50 (OCT2): > 32 µM
- survival rate vs untreated mice ([6]; 6.5 Gy TBI, BALB/c 9 weeks old): improved
- survival rate vs untreated mice ([6]; 6.5 Gy TBI, BALB/c 11 weeks old): improved
- survival rate vs untreated mice ([6]; 7 Gy TBI, 9 weeks old): improved until about day 15
- survival rate vs untreated mice ([6]; 8 Gy TBI, 9 weeks old): improved until about day 14
- survival rate vs untreated mice ([6]; 10 Gy TBI, 9 weeks old): improved until about day 9
